The values below come from patent publication US20250109139A1, “TRICYCLIC COMPOUND, AND PREPARATION METHOD THEREFOR AND USE THEREOF” (SHANGHAITECH UNIVERSITY, priority 2022, published 2025).

Broadly, the Emax is the maximal effect, on the per cent scale that the assay sets.

Like-named read-outs stand apart in the source and are kept apart here.

For assay [1], the target named is T1, dopamine D2 receptors (Homo sapiens (Human), UniProt P14416). Nature of the assay: Dopamine D2 receptor radioligand competition binding assay ([3H]-Methylspiperone). To be noted: [3H]-Methylspiperone 0.3 to 0.5 nM, 293T membranes. As to the method:
The affinity of the compounds of the present disclosure for dopamine D2 receptors was determined by a radioligand competition binding assay.
In the first step, a cell membrane component containing specific dopamine D2 receptors was prepared. A 10 cm culture dish was used for transfection with […] of dopamine D2 receptors and 40 μL of polyethylenimine (PEI hereafter). […] A vacuum pump was used to suck off the culture medium, 3 mL of lysis buffer was added to each culture dish, and the cells were placed in a 4° C. cold room for 10 minutes. After the cells were detached, the cells were transferred to a 15 mL centrifuge tube and centrifuged at 1500 rpm for 5 minutes at 4° C., and the supernatant was discarded. The cell pellet was transferred to a tissue homogenizer, and 3 mL of lysis buffer was added and fully ground until the cells were broken. Then, cell suspension was equally aliquoted into several EP tubes, centrifuged at 12000 rpm for 5 minutes at 4° C., and the supernatant was discarded. The precipitate was the cell membrane component containing the dopamine D2 receptors.
First, a standard binding buffer was added to the cell membrane component containing the dopamine D2 receptors, and the cell membrane was disrupted and resuspended with an electric tissue homogenizer. 30 μL of membrane protein suspension was added to each well of a 96-well plate. Then, 30 μL of different drugs were added to the 96-well plate sequentially from bottom to top to ensure that the final drug concentrations were 10^−5 M, 10^−6 M, 10^−7 M, 10^−8 M, 10^−9 M, and 0 M, with two replicates per treatment. Next, 30 μL of [3H]-Methylspiperone was added to each well of the 96-well plate. The plate was incubated at room temperature in the dark for 2 hours. Detection was conducted. The machine readout value reflected the amount of [3H]-Methylspiperone bound on the membrane, and after further data processing, the affinity Ki values of different compounds for the dopamine D2 receptors were obtained.
For orientation: Displacement assays read how much labelled ligand stays bound in the presence of the test substance.

Assay [2] concerns the target T1, dopamine D2 receptors. In words: Dopamine D2 receptor Gαi1 BRET (G protein trimer dissociation). In kind it is cell-based. The following applies: for Emax: relative to endogenous ligand dopamine, read-out: Gαi1 BRET Emax % ± SEM. As to the method:
(§1) To examine the downstream G-protein signaling pathway mediated by dopamine D2 receptors, on the first day, a 6 cm culture dish was used for transfection with 1 μg of dopamine D2 receptors, 1 μg of Gαi1 containing C-terminal seaweed luciferase (Gαi1-Rluc), 1 μg of Gβ3, 1 μg of Gγ9 containing C-terminal green fluorescent protein (Gγ9-GFP) mixed with 16 μL of PEI. At the same time, in order to examine the downstream β-arrestin2 signaling pathway mediated by dopamine D2 receptors, on the first day, a 6 cm culture dish was used for transfection with […] of dopamine D2 receptors containing C-terminal seaweed luciferase (D2-Rluc), […] of G protein-coupled receptor kinase 2 (GRK2), […] of β-arrestin2 containing N-terminal green fluorescent protein (GFP2-ARRB2) mixed with 14 μL of PEI. The next day, the confluent cells of a 6 cm culture dish were digested and reseeded into a 96-well plate with 100 μL of culture medium added to each well. On the third day, the drugs were added for test. The 96-well plate was taken out from the cell incubator to decant the culture medium, 40 μL of the substrate coelenterazine 400a (final concentration of 5 μM) was added to each well, and then 20 μL of different drugs were added sequentially from left to right to ensure that the final concentration of the drug decreased gradually from bottom to top, with two replicates per treatment. Finally, the prepared samples were loaded on machine for test. The machine readout value reflected the recruitment of β-arrestin2 to the membrane or the dissociation of G protein trimer. The former indicated the degree of activation of the β-arrestin2 signaling pathway downstream of the dopamine D2 receptors, and the latter indicated the degree of activation of the G protein signaling pathway downstream of the dopamine D2 receptors.
On the technique in general: BRET reads energy transfer from a luciferase to a nearby fluorophore.

In assay [3] the target is T1, dopamine D2 receptors. In words: Dopamine D2 receptor β-arrestin2 BRET (recruitment). To be noted: for Emax: relative to endogenous ligand dopamine, read-out: β-arrestin2 BRET Emax % ± SEM. In kind it is cell-based. The method, then: as §1
[4] abbreviates: unit printed only in Cariprazine cell, read-out: Gαi1 BRET EC50.
The mark [5] stands for this setting: unit printed only in Cariprazine cell, read-out: β-arrestin2 BRET EC50.
The mark [6] stands for this setting: read-out: Affinity pKi ± SEM (converted).
[7] abbreviates: read-out: Gαi1 BRET pEC50 ± SEM (converted).
Setting [8] is: read-out: β-arrestin2 BRET pEC50 ± SEM (converted).

T1 sequence (P14416 whole entry): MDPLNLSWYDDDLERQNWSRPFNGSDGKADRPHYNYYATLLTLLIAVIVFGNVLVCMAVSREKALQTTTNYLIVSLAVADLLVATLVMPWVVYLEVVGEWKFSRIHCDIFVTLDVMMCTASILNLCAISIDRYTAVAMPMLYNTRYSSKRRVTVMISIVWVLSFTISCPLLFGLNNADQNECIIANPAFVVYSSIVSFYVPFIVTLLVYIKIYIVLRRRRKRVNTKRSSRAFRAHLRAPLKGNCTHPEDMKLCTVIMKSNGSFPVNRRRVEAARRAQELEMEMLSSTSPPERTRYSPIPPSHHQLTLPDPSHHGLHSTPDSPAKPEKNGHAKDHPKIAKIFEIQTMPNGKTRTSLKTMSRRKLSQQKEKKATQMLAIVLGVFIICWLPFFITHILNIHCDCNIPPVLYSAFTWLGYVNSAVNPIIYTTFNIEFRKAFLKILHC

Turning to `COc1cccc2c3c(oc12)CN(CCCOc1ccc2ccc(=O)[nH]c2c1)CC3` [I-A8, 7-(3-(8-methoxy-3,4-dihydrobenzofuro[2,3-c]pyridin-2(1H)-yl)propoxy)quinolin-2(1H)-one], on dopamine D2 receptors [1], the “Affinity pKi ± SEM” value is reported as “(6.82 ± 0.16)”. Also, on dopamine D2 receptors [1] (read-out: Affinity Ki), the Ki came out at 149 nM. Further, the maximum response (Emax) at dopamine D2 receptors [2] was found to be 68%; at dopamine D2 receptors [3], 103%. The figures for the EC50 at dopamine D2 receptors [2] (setting [4]) and on dopamine D2 receptors [3] (setting [5]) were 0.15 nM and 52.6 nM, respectively.
For `COc1cccc2c3c(oc12)CN(C/C=C/COc1ccc2ccc(=O)[nH]c2c1)CC3` [I-A10, (E)-7-((4-(8-methoxy-3,4-dihydrobenzofuro[2,3-c]pyridin-2(1H)-yl)but-2-en-1-yl)oxy)quinolin-2(1H)-one], the “Affinity pKi ± SEM” value on dopamine D2 receptors [1] is listed as “(6.85 ± 0.19)”. Also, the Ki on dopamine D2 receptors [1] (read-out: Affinity Ki) was 139 nM. Also, on dopamine D2 receptors [2], the “Gαi1 BRET pEC50 ± SEM” value was “(7.21 ± 0.12)”. Besides, the figures for the Emax on dopamine D2 receptors [2] and at dopamine D2 receptors [3] were 27% and 107%, respectively. Further, the EC50 at dopamine D2 receptors [2] (setting [4]) was 61.3 nM; at dopamine D2 receptors [3] (setting [5]), 4.61 nM.
Turning to `COc1cccc2c3c(oc12)CN(CC[C@H]1CC[C@H](NS(C)(=O)=O)CC1)CC3` [I-A13, N-(trans-4-(2-(8-methoxy-3,4-dihydrobenzofuro[2,3-c]pyridin-2(1H)-yl)ethyl)cyclohexyl)methanesulfonamide], the Ki was 1720 nM on dopamine D2 receptors [1] (read-out: Affinity Ki) and 1580 nM on dopamine D2 receptors [1] (setting [6]). Besides, the EC50 at dopamine D2 receptors [2] (setting [7]) was 38.9 nM; on dopamine D2 receptors [2] (setting [4]), 46.6 nM; at dopamine D2 receptors [3] (setting [8]) it was 0.832 nM; on dopamine D2 receptors [3] (setting [5]) it was 4.61 nM. Further, the Emax on dopamine D2 receptors [2] is 53%; at dopamine D2 receptors [3], 81%.
`CC(C)Oc1cccc2c3c(oc12)CN(CC[C@H]1CC[C@H](NC(=O)N(C)C)CC1)CC3` [I-A19, 3-(trans-4-(2-(8-isopropoxy-3,4-dihydrobenzofuro[2,3-c]pyridin-2(1H)-yl)ethyl)cyclohexyl)-1,1-dimethylurea]: at dopamine D2 receptors [1], the “Affinity pKi ± SEM” value is recorded as “(6.03 ± 0.07)”. The Ki on dopamine D2 receptors [1] (read-out: Affinity Ki) stood at 930 nM. The EC50 on dopamine D2 receptors [2] (setting [7]) was 10.7 nM; at dopamine D2 receptors [2] (setting [4]) it was 10.6 nM; on dopamine D2 receptors [3] (setting [5]) it was 8.36 nM. Also, the figures for the Emax at dopamine D2 receptors [2] and on dopamine D2 receptors [3] were 40% and 21%, respectively.
On to `COc1cccc2c3c([nH]c12)CN(CCCCOc1ccc2ccc(=O)[nH]c2c1)CC3` [I-B1, 7-(4-(8-methoxy-1,3,4,9-tetrahydro-2H-pyrido[3,4-b]indol-2-yl)butoxy)quinolin-2(1H)-one], for which the Ki is 362 nM on dopamine D2 receptors [1] (read-out: Affinity Ki) and 83.2 nM on dopamine D2 receptors [1] (setting [6]). Also, the EC50 at dopamine D2 receptors [2] (setting [7]) is 102 nM; on dopamine D2 receptors [2] (setting [4]), 233 nM; on dopamine D2 receptors [3] (setting [8]), 12 nM; at dopamine D2 receptors [3] (setting [5]), 13.1 nM. Also, the Emax on dopamine D2 receptors [2] was determined as 22%; on dopamine D2 receptors [3], 50%.
Take `COc1cccc2c3c([nH]c12)CN(CCCOc1ccc2ccc(=O)[nH]c2c1)CC3` [I-B3, 7-(3-(8-methoxy-1,3,4,9-tetrahydro-2H-pyrido[3,4-b]indol-2-yl)propoxy)quinolin-2(1H)-one]: the Ki was 282 nM on dopamine D2 receptors [1] (read-out: Affinity Ki) and 288 nM at dopamine D2 receptors [1] (setting [6]). The EC50 at dopamine D2 receptors [2] (setting [7]) is 13.2 nM; on dopamine D2 receptors [2] (setting [4]), 13 nM; on dopamine D2 receptors [3] (setting [5]) it was 0.47 nM. In addition, the Emax on dopamine D2 receptors [2] turned out to be 41%; on dopamine D2 receptors [3] it was 90%.
Take `COc1cccc2c3c([nH]c12)CN(CCC1CC(NC(=O)N(C)C)C1)CC3` (stereo not drawn) [I-B10, 3-(3-(2-(8-methoxy-1,3,4,9-tetrahydro-2H-pyrido[3,4-b]indol-2-yl)ethyl)cyclobutyl)-1,1-dimethylurea]: at dopamine D2 receptors [1], the “Affinity pKi ± SEM” value is “(7.63 ± 0.57)”. Also, the Ki at dopamine D2 receptors [1] (read-out: Affinity Ki) amounted to 23.2 nM.
For the compound `COc1cccc2c1cc1n2CCN(C/C=C/COc2ccc3ccc(=O)[nH]c3c2)C1` [I-C5, (E)-7-((4-(9-methoxy-3,4-dihydropyrazino[1,2-a]indol-2(1H)-yl)but-2-en-1-yl)oxy)quinolin-2(1H)-one], the “Affinity pKi ± SEM” value on dopamine D2 receptors [1] is recorded as “(6.36 ± 0.28)”. Moreover, on dopamine D2 receptors [1] (read-out: Affinity Ki), the Ki worked out at 438 nM. Further, the EC50 on dopamine D2 receptors [2] (setting [7]) is 97.7 nM; on dopamine D2 receptors [2] (setting [4]), 96.5 nM; on dopamine D2 receptors [3] (setting [5]) it was 20.8 nM. Also, the Emax at dopamine D2 receptors [2] stood at 64%; at dopamine D2 receptors [3], 127%.
As to `COc1cccc2c1nc1n2CCN(CC[C@H]2CC[C@H](NC(=O)N(C)C)CC2)C1` [I-D6, 3-(trans-4-(2-(9-methoxy-3,4-dihydrobenzo[4,5]imidazo[1,2-a]pyrazin-2(1H)-yl)ethyl)cyclohexyl)-1,1-dimethylurea], the Ki at dopamine D2 receptors [1] (read-out: Affinity Ki) is 16.8 nM; at dopamine D2 receptors [1] (setting [6]) it was 12.9 nM.
